In article PMC7910394, “Design of PSMA ligands with modifications at the inhibitor part: an approach to reduce the salivary gland uptake of radiolabeled PSMA inhibitors?” (EJNMMI Radiopharmacy and Chemistry, 2021):
Like-named read-outs stand apart in the source and are kept apart here.

Legend:
[1] = tested on: LNCaP tumor xenograft-bearing CB17-SCID mice; assay type: in vivo, mouse
Description: All animal experiments were conducted in accordance with general animal welfare regulations in Germany (German animal protection act, as amended on 18.05.2018, Art. 141 G v. 29.3.2017 I 626, approval no. 55.2–1-54-2532-71-13) and the institutional guidelines for the care and use of animals. To establish tumor xenografts, LNCaP cells (approx. 10^7 cells) were suspended in 200 μL of a 1/1 mixture (v/v) of DMEM F-12 and Matrigel (BD Biosciences, Heidelberg, Germany) and inoculated subcutaneously onto the right shoulder of 6–8 weeks old CB17-SCID mice (Charles River Laboratories, Sulzfeld, Germany). Mice were used for experiments when tumor size reached 5–10 mm in diameter (3–6 weeks after inoculation).
(§1) Approximately 2–10 MBq (0.20 nmol) of the ^177Lu-labeled PSMA inhibitors were injected into the tail vein of LNCaP tumor xenograft-bearing male CB17-SCID mice (n = 3 to 5). They were sacrificed by CO2 asphyxiation and cervical dislocation either 1 h or 24 h post injection (p.i.) (n = 3 for [^177Lu]Lu-5, -6 & -7 (proinhibitor compounds I-III), n = 4 for [^177Lu]Lu-10 (alkyne), n = 5 for [^177Lu]Lu-3 (carbamate I) and n = 5 for [^177Lu]Lu-11 (tetrazole)). Selected organs were removed, weighed and organ activities measured in a γ-counter.
as §1, with “2 - 10” for “2–10”, “(alkyne) and” for “(alkyne),”

[2] = Lipophilicity (log D), shake-flask method; assay type: physicochemical; details: from log D values
Description: The log D values were determined, using the shake-flask method as previously described (Wurzer et al. [2020]). The radiolabeled tracer (0.5–1 MBq, 20 μL) was dissolved in 1 mL of a 1/1 mixture (v/v) of PBS (pH 7.4) and n-octanol in a reaction vial (n = 6). After vigorous mixing of the suspension for 3 min at r.t., the vial was centrifuged at 9000 rpm (ca. 7700×g) for 5 min at room temperature (Heraeus Biofuge 15, Thermo Fisher Scientific, Darmstadt, Germany) and 150 μL aliquots of both layers were measured in a ɣ-counter.

PSMA = target: T1, PSMA (Homo sapiens, UniProt Q04609); experiment: Competitive binding assay (IC50) on LNCaP cells with ([125I]I-BA)KuE as radioligand; details: ([125I]I-BA)KuE 0.2 nM, HBSS (1% BSA), 4 °C, 1 h
T1 construct: host or cells: LNCaP human prostate cancer cells
Description: PSMA-positive LNCaP cells (300265; Cell Lines Service, Eppelheim, Germany) were cultivated in Dulbecco’s modified Eagle medium/Nutrition Mixture F-12 with GlutaMAX (1/1, DMEM-F12, Thermo Fisher Scientific, Darmstadt, Germany) supplemented with 10% fetal bovine serum (Merck KGaA, Darmstadt, Germany) and kept at 37 °C in a humidified 5% CO2 atmosphere. One day (24 ± 2 h) prior to all in vitro experiments, the cultivated LNCaP cells were harvested using a mixture of trypsin/ethylenediamine-tetraacetic acid (0.05%/0.02%) in PBS (Thermo Fisher Scientific, Darmstadt, Germany) and centrifuged at 1300 rpm (ca. 190×g) for 3 min at room temperature (Heraeus Megafuge 16, Thermo Fisher Scientific, Darmstadt, Germany). After centrifugation, the supernatant was disposed and the cell pellet was resuspended in culture medium. Cells were counted with a Neubauer hemocytometer (Paul Marienfeld GmbH & Co. KG, Lauda-Königshofen, Germany) and seeded in 24-well plates.
Detailed information on affinity and internalization experiments is provided in the supporting information. […] IC50 values of (^natI-BA)KuE were determined on the same day for monitoring assay performance and to identify abnormal deviations in uptake and/or affinity. […] Data were corrected for non-specific binding and normalized to the specific internalization observed for the radioiodinated reference compound (n = 3).
The culture medium was removed and the cells were washed with 500 µL of Hank’s balanced salt solution (HBSS) (Merck KGaA, Darmstadt, Germany), containing 1% bovine serum albumin (BSA) (Merck KGaA, Darmstadt, Germany). Afterwards, 200 µL of HBSS (1% BSA) were added to each well and equilibrated on ice (4 °C) for 15 min. […] Experiments were carried out in triplicates for each concentration. The final concentrations of unlabeled ligand ranged from 10^-11 - 10^-5 M and the final radioligand concentration was 0.2 nM in all binding assays. The cells were incubated for one hour at 4 °C. Incubation was terminated by removal of the incubation medium. The cells were washed with 250 µL of HBSS (1% BSA) and the wash medium was combined with the respective supernatant. This fraction represents the amount of free radioligand. The cells were lysed by addition of 250 µL of 1 M aqueous NaOH. The lysate of each well was transferred to the respective vial as well as 250 µL of 1 M NaOH used for rinsing the well. Quantification of the amount of free and bound activity was performed in a γ-counter. The corresponding IC50 values were calculated using the GraphPad PRISM7 software.

T1 sequence (Q04609 whole entry): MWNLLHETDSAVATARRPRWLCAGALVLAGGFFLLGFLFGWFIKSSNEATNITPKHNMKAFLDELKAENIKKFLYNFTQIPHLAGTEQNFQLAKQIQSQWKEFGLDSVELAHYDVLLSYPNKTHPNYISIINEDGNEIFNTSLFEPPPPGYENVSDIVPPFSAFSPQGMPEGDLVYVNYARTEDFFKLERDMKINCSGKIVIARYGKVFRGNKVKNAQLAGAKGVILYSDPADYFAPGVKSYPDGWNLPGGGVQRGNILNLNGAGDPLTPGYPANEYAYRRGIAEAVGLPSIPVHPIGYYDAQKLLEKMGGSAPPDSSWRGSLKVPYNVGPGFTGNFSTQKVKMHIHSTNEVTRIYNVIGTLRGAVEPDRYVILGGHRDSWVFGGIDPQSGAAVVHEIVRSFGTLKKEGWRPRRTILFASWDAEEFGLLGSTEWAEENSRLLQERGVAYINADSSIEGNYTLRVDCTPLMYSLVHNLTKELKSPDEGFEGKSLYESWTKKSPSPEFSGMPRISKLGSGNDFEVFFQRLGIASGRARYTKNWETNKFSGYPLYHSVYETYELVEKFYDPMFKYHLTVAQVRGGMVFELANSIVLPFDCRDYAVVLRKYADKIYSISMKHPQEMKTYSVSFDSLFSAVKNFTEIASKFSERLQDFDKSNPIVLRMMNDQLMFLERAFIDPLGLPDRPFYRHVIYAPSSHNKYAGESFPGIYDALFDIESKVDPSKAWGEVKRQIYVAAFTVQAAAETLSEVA

## CC(C)(C)[Si](F)(c1ccc(C(=O)NC[C@@H](NC(=O)CN2CCN(CC(=O)[O-])CCN(CC(=O)[O-])CCN(CC(=O)[O-])CC2)C(=O)N[C@H](CCCCNC(=O)CCC(=O)NCCC[C@@H](NC(=O)CC[C@H](NC(=O)N[C@@H](CCc2nnn[nH]2)C(=O)O)C(=O)O)C(=O)O)C(=O)O)cc1)C(C)(C)C.[Lu+3] [^natLu/[^177Lu]Lu-11]
[1]; 1 h p.i.
  Biodistribution Adrenals: 0.61 ± 0.42 % ID/g
  Biodistribution Blood: 1.09 ± 0.30 % ID/g
  Biodistribution Bone: 0.47 ± 0.44 % ID/g
  Biodistribution Heart: 0.41 ± 0.04 % ID/g
  Biodistribution Intestine: 0.67 ± 0.21 % ID/g
  Biodistribution Kidneys: 33.2 ± 3.8 % ID/g
  Biodistribution Liver: 0.74 ± 0.17 % ID/g
  Biodistribution Lung: 1.23 ± 0.27 % ID/g
  Biodistribution Muscle: 0.15 ± 0.03 % ID/g
  Biodistribution Pancreas: 0.33 ± 0.11 % ID/g
  Biodistribution Parotid gland: 0.56 ± 0.08 % ID/g
  Biodistribution Spleen: 1.04 ± 0.15 % ID/g
  Biodistribution Stomach: 1.55 ± 1.67 % ID/g
  Biodistribution Submandibular gland: 0.40 ± 0.05 % ID/g
  Biodistribution Tumor: 3.40 ± 0.63 % ID/g
  Ratio Tumor-to-blood: 3.46 ± 1.62
  Ratio Tumor-to-kidney: 0.10 ± 0.03
  Ratio Tumor-to-liver: 5.00 ± 2.11
  Ratio Tumor-to-muscle: 24.9 ± 10.2
  Ratio Tumor-to-parotid gland: 6.20 ± 1.74
  Ratio Tumor-to-submandibular gland: 8.74 ± 2.52
[1]; 24 h p.i.
  Biodistribution Adrenals: 0.17 ± 0.19 % ID/g
  Biodistribution Bone: 0.18 ± 0.04 % ID/g
  Biodistribution Heart: 0.02 ± 0.00 % ID/g
  Biodistribution Intestine: 0.52 ± 0.68 % ID/g
  Biodistribution Kidneys: 3.23 ± 0.77 % ID/g
  Biodistribution Liver: 0.18 ± 0.04 % ID/g
  Biodistribution Lung: 0.05 ± 0.02 % ID/g
  Biodistribution Muscle: 0.02 ± 0.01 % ID/g
  Biodistribution Pancreas: 0.02 ± 0.00 % ID/g
  Biodistribution Parotid gland: 0.06 ± 0.02 % ID/g
  Biodistribution Spleen: 0.11 ± 0.03 % ID/g
  Biodistribution Stomach: 0.12 ± 0.11 % ID/g
  Biodistribution Submandibular gland: 0.04 ± 0.01 % ID/g
  Biodistribution Tumor: 0.68 ± 0.16 % ID/g
  Ratio Tumor-to-blood: 227 ± 50
  Ratio Tumor-to-kidney: 0.22 ± 0.06
  Ratio Tumor-to-liver: 3.74 ± 0.50
  Ratio Tumor-to-muscle: 55.9 ± 24.3
  Ratio Tumor-to-parotid gland: 12.2 ± 1.7
  Ratio Tumor-to-submandibular gland: 16.9 ± 2.2
  factor by which tumor-to-submandibular gland and tumor-to-parotid gland ratios are lower than for [177Lu]Lu-1: 8
[2]
  increase of lipophilicity compared to [177Lu]Lu-1: ~ 7.4 fold
PSMA
  IC50: 16.4 ± 3.8 nM
